Measured values: ChEMBL document CHEMBL1201862, “PubChem BioAssay data set” (2004)
The source made the active and inactive calls.

Legend:
Caspase-3 = target: T1, Caspase-3 (Homo sapiens, UniProt P42574); format: functional;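 also: Dose-response selectivity test against caspase-3 for candidate inhibitors of sentrin-specific proteases (SENPs)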
T1 sequence (P42574 whole entry): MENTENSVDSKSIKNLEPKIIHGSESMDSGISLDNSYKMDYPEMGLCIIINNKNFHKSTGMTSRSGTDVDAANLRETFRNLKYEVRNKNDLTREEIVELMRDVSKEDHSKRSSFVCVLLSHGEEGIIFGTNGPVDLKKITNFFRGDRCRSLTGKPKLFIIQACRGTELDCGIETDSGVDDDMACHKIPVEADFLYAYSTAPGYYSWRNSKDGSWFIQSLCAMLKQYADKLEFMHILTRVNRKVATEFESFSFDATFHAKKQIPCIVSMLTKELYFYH

[1] = target: T2, Sentrin-specific protease 7 (Homo sapiens, UniProt Q9BQF6); format: functional;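 also: Luminescence-based dose-response confirmation of ultra-high-throughput screening hits, measuring inhibition of SENP7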
T2 sequence (Q9BQF6 whole entry): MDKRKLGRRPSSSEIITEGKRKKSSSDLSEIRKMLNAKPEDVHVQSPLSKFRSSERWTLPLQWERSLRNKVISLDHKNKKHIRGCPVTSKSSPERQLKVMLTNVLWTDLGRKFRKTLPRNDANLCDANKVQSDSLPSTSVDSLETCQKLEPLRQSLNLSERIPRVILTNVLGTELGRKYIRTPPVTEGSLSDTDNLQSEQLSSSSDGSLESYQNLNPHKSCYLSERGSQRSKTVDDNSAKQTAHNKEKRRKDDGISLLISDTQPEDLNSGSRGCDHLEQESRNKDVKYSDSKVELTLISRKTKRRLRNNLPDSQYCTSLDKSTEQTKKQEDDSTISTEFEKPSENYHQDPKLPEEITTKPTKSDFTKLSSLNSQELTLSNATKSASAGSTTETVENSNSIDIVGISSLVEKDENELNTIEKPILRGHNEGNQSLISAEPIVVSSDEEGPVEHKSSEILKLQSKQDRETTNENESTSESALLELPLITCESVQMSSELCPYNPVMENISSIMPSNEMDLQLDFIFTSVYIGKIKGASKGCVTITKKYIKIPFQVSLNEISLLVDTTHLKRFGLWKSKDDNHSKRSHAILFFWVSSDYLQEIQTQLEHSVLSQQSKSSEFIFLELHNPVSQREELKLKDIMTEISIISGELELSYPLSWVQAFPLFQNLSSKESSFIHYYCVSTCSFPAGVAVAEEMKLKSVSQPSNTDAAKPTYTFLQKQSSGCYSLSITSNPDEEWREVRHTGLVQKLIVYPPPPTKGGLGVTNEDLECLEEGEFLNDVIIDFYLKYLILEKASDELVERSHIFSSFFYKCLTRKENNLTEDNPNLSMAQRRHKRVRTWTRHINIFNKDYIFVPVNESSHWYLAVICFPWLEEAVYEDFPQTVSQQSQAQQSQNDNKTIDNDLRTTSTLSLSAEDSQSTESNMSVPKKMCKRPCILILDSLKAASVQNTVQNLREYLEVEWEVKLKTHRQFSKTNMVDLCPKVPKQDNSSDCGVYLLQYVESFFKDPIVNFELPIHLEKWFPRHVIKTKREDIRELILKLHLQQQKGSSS

[2] = target: Serine/threonine-protein phosphatase PP1-alpha catalytic subunit (Homo sapiens, UniProt P62136); experiment: PP1 phosphatase inhibitors, dose response, biochemical, fluorescence (AID 2394)
[3] = Luminescence-based counterscreen assay for KLF5 inhibitors: dose response cell-based high throughput screening assay to identify cytotoxic compounds using the IEC-6 intestinal epithelial cell line. [Related pubchem assays: 1700 (Primary screen.), 1834 (Confirmation screen.), 1858 (Summary AID.), 1905 (Counterscreen.)]; format: functional
[4] = target: Serine/threonine-protein phosphatase (Homo sapiens, UniProt Q9BPW0); experiment: PP5 phosphatase inhibitors, dose response, biochemical, fluorescence (AID 2395)
[5] = target: T3, Apoptotic protease-activating factor 1 (Homo sapiens, UniProt O14727); format: functional
T3 sequence (O14727 whole entry): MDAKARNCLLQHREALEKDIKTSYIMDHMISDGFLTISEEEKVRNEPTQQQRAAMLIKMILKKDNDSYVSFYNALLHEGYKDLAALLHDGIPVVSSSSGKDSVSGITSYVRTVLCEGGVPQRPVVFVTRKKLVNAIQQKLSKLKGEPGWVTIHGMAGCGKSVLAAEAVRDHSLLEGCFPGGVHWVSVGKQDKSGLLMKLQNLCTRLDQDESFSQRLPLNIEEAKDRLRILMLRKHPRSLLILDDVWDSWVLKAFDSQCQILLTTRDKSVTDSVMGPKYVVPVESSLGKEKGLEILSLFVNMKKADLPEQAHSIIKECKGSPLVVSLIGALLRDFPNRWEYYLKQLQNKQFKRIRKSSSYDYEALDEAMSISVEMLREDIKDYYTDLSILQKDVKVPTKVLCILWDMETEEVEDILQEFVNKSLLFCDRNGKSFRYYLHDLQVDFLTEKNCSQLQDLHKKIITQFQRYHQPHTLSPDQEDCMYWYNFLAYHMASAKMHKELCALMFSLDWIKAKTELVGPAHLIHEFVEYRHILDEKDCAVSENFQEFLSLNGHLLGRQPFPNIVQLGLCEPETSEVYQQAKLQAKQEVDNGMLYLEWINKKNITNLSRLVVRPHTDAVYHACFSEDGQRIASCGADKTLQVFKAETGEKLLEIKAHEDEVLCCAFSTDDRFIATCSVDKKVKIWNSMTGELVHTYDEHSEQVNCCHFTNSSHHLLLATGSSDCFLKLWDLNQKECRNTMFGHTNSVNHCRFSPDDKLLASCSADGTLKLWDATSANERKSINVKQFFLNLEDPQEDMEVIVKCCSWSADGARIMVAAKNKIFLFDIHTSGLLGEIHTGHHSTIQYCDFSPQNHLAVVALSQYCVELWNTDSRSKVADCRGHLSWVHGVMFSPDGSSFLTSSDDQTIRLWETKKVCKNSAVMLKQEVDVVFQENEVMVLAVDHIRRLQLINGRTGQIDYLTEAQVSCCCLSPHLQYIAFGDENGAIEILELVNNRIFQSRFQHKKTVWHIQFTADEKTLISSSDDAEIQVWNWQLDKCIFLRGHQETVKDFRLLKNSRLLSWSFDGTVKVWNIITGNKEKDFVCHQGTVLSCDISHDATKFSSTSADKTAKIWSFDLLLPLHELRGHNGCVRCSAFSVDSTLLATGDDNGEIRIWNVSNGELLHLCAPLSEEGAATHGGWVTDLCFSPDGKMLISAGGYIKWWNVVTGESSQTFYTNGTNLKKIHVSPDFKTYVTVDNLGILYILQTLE

[6] = Artemis endonuclease inhibitor potency, dose response, biochemical, fluorescence intensity (AID 720701); format: functional;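 also: Artemis endonuclease enzyme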
[7] = target: Tyrosyl-DNA phosphodiesterase 2 (Homo sapiens, UniProt O95551); experiment: human TDP2 enzyme inhibitors, dose response, biochemical, epi absorbance, IC50 (AID 743297)
[8] = A375 melanoma cell cytotoxicity, dose response, counter-screen for MITF inhibitor project, CellTiter-Glo luminescence, dry powder, set 2 (AID 624489); format: functional, cell-based; conditions: A-375;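 also: actives are compounds lowering A375 viability meaning general cytotoxicity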

Chain of Tyrosyl-DNA phosphodiesterase 2 (O95551 whole entry): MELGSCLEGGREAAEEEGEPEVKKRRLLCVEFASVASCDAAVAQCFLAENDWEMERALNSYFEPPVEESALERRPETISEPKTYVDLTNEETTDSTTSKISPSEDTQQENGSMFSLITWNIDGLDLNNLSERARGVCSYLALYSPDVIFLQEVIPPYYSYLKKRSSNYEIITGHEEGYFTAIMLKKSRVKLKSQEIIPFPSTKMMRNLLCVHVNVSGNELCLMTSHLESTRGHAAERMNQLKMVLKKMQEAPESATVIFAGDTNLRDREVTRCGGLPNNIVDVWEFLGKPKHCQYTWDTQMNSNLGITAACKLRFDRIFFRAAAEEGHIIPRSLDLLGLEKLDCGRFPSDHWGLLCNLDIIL
Chain of Serine/threonine-protein phosphatase (Q9BPW0 whole entry): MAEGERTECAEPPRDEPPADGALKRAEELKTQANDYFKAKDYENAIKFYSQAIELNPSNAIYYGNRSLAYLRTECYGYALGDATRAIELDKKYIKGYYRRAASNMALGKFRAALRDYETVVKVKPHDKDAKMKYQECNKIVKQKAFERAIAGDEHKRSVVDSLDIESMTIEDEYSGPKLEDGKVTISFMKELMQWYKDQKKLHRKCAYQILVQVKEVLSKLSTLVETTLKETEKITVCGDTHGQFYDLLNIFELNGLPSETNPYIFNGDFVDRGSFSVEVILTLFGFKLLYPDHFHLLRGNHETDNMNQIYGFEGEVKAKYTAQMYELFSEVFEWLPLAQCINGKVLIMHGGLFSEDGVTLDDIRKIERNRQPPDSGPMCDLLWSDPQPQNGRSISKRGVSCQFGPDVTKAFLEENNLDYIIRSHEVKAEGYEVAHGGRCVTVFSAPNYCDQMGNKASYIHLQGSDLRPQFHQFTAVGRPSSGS
Chain of Serine/threonine-protein phosphatase PP1-alpha catalytic subunit (P62136 whole entry): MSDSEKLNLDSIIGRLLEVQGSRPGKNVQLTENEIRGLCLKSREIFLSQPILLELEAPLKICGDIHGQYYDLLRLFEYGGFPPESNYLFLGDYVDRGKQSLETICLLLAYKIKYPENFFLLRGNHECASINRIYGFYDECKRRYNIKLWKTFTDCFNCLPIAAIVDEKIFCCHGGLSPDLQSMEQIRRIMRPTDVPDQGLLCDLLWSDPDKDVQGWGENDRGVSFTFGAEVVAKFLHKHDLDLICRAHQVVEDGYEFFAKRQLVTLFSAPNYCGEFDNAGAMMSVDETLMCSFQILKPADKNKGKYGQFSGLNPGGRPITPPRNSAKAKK

SMILES	IC50 (Caspase-3)	IC50 [1]	IC50 [2]	IC50 [3]	IC50 [4]	IC50 [5]	IC50 [6]	IC50 [7]	AC50 [8]
Oc1[nH]c2ccccc2c1N=Nc1ccc(F)cc1	7.58 µM (active)	1.51 µM (active)							
O=C1C(Nc2ccccc2)=C(N2CCCCC2)C(=O)c2ccccc21			> 67 µM (not active)	> 39.8 µM (not active)	> 67 µM (not active)	4.78 µM (active)	18.9 µM (active)	> 128 µM (inactive)	24.9 µM (active)
